The text below walks through data of patent publication US8592455B2 (priority 2008, dated 2013).

For assay [1], the target named is T1, Pim1 kinase (Homo sapiens (Human), UniProt P11309). To be noted: read-out: Pim1 IC50.
In the next assay the target is Pim3 kinase (Homo sapiens (Human), UniProt Q86V86). To be noted: read-out: Pim3 IC50.
Assay [2] addresses T1, Pim1 kinase. Briefly: biochemical.

Read-outs that look alike come from different tables or passages of the source.

T1 sequence (P11309 whole entry): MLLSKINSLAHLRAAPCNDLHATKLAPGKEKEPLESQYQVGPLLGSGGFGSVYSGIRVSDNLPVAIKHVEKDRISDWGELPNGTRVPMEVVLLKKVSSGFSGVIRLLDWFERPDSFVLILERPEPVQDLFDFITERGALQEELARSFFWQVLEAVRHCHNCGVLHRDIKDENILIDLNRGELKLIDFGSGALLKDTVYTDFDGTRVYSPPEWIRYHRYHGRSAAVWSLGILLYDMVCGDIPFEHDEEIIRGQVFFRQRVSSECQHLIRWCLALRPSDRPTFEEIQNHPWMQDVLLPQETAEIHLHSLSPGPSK

As for `N[C@H]1CCC[C@@H](c2ccncc2NC(=O)c2ccc(F)c(-c3c(F)ccc(O)c3F)n2)C1` [Example 124, N-(4-((1R,3S)-3-aminocyclohexyl)pyridin-3-yl)-6-(2,6-difluoro-3-hydroxyphenyl)-5-fluoropicolinamide], the IC50 on Pim1 kinase [1] and at Pim3 kinase was 1 nM in each case.

For the compound `Cc1ccc(F)c(-c2cccc(C(=O)Nc3cnccc3N3C[C@@H](N)[C@H](O)[C@@H](C)C3)n2)c1F` [Example 13, N-(4-((3R,4R,5S)-3-amino-4-hydroxy-5-methylpiperidin-1-yl)pyridin-3-yl)-6-(2,6-difluoro-3-methylphenyl)picolinamide], the IC50 came out at 1 nM on Pim1 kinase [1] and 3 nM on Pim3 kinase.

With `Cc1ccc(F)c(-c2nc(C(=O)Nc3cnccc3[C@@H]3C[C@H](C)C[C@H](N)C3)ccc2F)c1F` [Example 27, N-(4-((1R,3S,5S)-3-amino-5-methylcyclohexyl)pyridin-3-yl)-6-(2,6-difluoro-3-methylphenyl)-5-fluoropicolinamide], the IC50 on Pim1 kinase [1] came to 1 nM; on Pim3 kinase, 2 nM.

As to `Cc1ccc(F)c(-c2cccc(C(=O)Nc3cnccc3[C@H]3C[C@@H](N)[C@H](O)[C@@H](C)C3)n2)c1F` [Example 30, N-(4-((1R,3R,4R,5S)-3-amino-4-hydroxy-5-methylcyclohexyl)pyridin-3-yl)-6-(2,6-difluoro-3-methylphenyl)picolinamide], the figures for the IC50 at Pim1 kinase [1] and at Pim3 kinase were 2 nM and 4 nM, respectively.

Consider `C[C@H]1CN(c2ccncc2NC(=O)c2nc(-c3c(F)cccc3F)ccc2F)C[C@@H](N)[C@@H]1O` [Example 24, N-(4-((3R,4R,5S)-3-amino-4-hydroxy-5-methylpiperidin-1-yl)pyridin-3-yl)-6-(2,6-difluorophenyl)-3-fluoropicolinamide], for which the 50% inhibitory concentration (IC50) on Pim1 kinase [1] and on Pim3 kinase was 1 nM each time.

Turning to `Cc1ccc(F)c(-c2nc(C(=O)Nc3cnccc3[C@H]3C[C@@H](N)CC(C)(C)C3)ccc2F)c1F` [Example 11, N-(4-((1R,5R)-5-amino-3,3-dimethylcyclohexyl)pyridin-3-yl)-6-(2,6-difluoro-3-methylphenyl)-5-fluoropicolinamide], the IC50 was found to be 1 nM on Pim1 kinase [1] and 4 nM at Pim3 kinase.

For `C[C@H]1CN(c2ccncc2NC(=O)c2ccc(F)c(-c3ccncc3)n2)C[C@@H](N)[C@@H]1O` [Example 120, N-(4-((3R,4R,5S)-3-amino-4-hydroxy-5-methylpiperidin-1-yl)pyridin-3-yl)-3-fluoro-2,4′-bipyridine-6-carboxamide], the values for the IC50 on Pim1 kinase [1] and at Pim3 kinase were 3 nM and 7 nM, respectively.

Turning to `N[C@@H]1C[C@H](c2ccncc2NC(=O)c2cccc(-c3ccccc3F)n2)CC[C@@H]1O` [Example 83, N-(4-((1R,3R,4S)-3-amino-4-hydroxycyclohexyl)pyridin-3-yl)-6-(2-fluorophenyl)picolinamide], the IC50 on Pim1 kinase [1] was 4 nM; at Pim3 kinase, 5 nM.

With `C[C@H]1CN(c2ccncc2NC(=O)c2cccc(-c3c(F)cccc3F)n2)C[C@@H](O)[C@@H]1O` [Example 115, 6-(2,6-difluorophenyl)-N-(4-((3R,4R,5S)-3,4-dihydroxy-5-methylpiperidin-1-yl)pyridin-3-yl)picolinamide], the IC50 on Pim1 kinase [1] and on Pim3 kinase was 1 nM throughout.

For the compound `Nc1ccc(-c2c(F)cccc2F)nc1C(=O)Nc1cnccc1[C@@H]1CC[C@H](O)[C@H](N)C1` (stereo in doubt) [Example 102, 3-amino-N-(4-(3-amino-4-hydroxycyclohexyl)pyridin-3-yl)-6-(2,6-difluorophenyl)picolinamide], the IC50 on Pim1 kinase [2] is 1 nM.

Take `C[C@@H]1C[C@H](N)C[C@H](c2ccncc2NC(=O)c2nc(-c3c(F)cccc3F)c(F)cc2N)C1` (stereo in doubt) [Example 133, 3-amino-N-(4-(3-amino-5-methylcyclohexyl)pyridin-3-yl)-6-(2,6-difluorophenyl)-5-fluoropicolinamide]: the values for the IC50 on Pim1 kinase [1] and on Pim3 kinase were 1 nM and 7 nM, respectively.

As for `C[C@H]1CN(c2ccncc2NC(=O)c2ccc(F)c(-c3cccnc3)n2)C[C@@H](N)[C@@H]1O` [Example 118, N-(4-((3R,4R,5S)-3-amino-4-hydroxy-5-methylpiperidin-1-yl)pyridin-3-yl)-3-fluoro-2,3′-bipyridine-6-carboxamide], the results for the IC50 at Pim1 kinase [1] and at Pim3 kinase were 4 nM and 9 nM, respectively.

`C[C@@H]1C[C@H](N)C[C@H](c2ccncc2NC(=O)c2ccc(F)c(C3CCCCC3)n2)C1` (stereo in doubt) [Example 91, N-(4-(3-amino-5-methylcyclohexyl)pyridin-3-yl)-6-cyclohexyl-5-fluoropicolinamide]: the values for the IC50 at Pim1 kinase [1] and on Pim3 kinase were 3 nM and 21 nM, respectively.

On to `C[C@H]1C[C@@H](c2ccncc2NC(=O)c2ccc(F)c(C3CCCCC3)n2)C[C@@H](N)[C@@H]1O` (stereo in doubt) [Example 89, N-(4-(3-amino-4-hydroxy-5-methylcyclohexyl)pyridin-3-yl)-6-cyclohexyl-5-fluoropicolinamide], for which the IC50 at Pim1 kinase [1] came to 8 nM; on Pim3 kinase, 29 nM.

Consider `CCc1ccc(F)c(-c2cccc(C(=O)Nc3cnccc3[C@@H]3C[C@H](C)C[C@H](N)C3)n2)c1F` [Example 21, N-(4-((1R,3S,5S)-3-amino-5-methylcyclohexyl)pyridin-3-yl)-6-(3-ethyl-2,6-difluorophenyl)picolinamide], for which the IC50 at Pim1 kinase [1] came to 2 nM; on Pim3 kinase it was 6 nM.

As to `C[C@H]1C[C@@H](c2ccncc2NC(=O)c2ccc(F)c(-c3cccc(C(F)(F)F)c3F)n2)C[C@@H](N)[C@@H]1O` [Example 127, N-(4-((1R,3R,4R,5S)-3-amino-4-hydroxy-5-methylcyclohexyl)pyridin-3-yl)-5-fluoro-6-(2-fluoro-3-(trifluoromethyl)phenyl)picolinamide], the IC50 at Pim1 kinase [1] was found to be 11 nM; on Pim3 kinase it was 27 nM.

For the compound `Cc1ccc(F)c(-c2nc(C(=O)Nc3cnccc3[C@@H]3CCC[C@H](N)C3)ccc2F)c1F` [Example 20, N-(4-((1R,3S)-3-aminocyclohexyl)pyridin-3-yl)-6-(2,6-difluoro-3-methylphenyl)-5-fluoropicolinamide], the IC50 is 1 nM on Pim1 kinase [1] and 3 nM on Pim3 kinase.

With `N[C@H]1CCC[C@@H](c2ccncc2NC(=O)c2ccc(F)c([C@H]3CC[C@H](O)CC3)n2)C1` [Example 56, N-(4-((1R,3S)-3-aminocyclohexyl)pyridin-3-yl)-5-fluoro-6-((1r,4r)-4-hydroxycyclohexyl)picolinamide], the values for the IC50 at Pim1 kinase [1] and at Pim3 kinase were 11 nM and 102 nM, respectively.

For the compound `C[C@@H]1C[C@H](c2ccncc2NC(=O)c2cccc(-c3c(F)cccc3F)n2)C[C@H](N)[C@H]1O` (stereo in doubt) [Example 52, N-(4-((1S,3S,4S,5R)-3-amino-4-hydroxy-5-methylcyclohexyl)pyridin-3-yl)-6-(2,6-difluorophenyl)picolinamide], the results for the IC50 on Pim1 kinase [1] and at Pim3 kinase were 1 nM and 2 nM, respectively.

On to `CC1(C)C[C@H](N)C[C@H](c2ccncc2NC(=O)c2ccc(F)c(-c3ccc(O)cc3F)n2)C1` [Example 10, N-(4-((1R,5R)-5-amino-3,3-dimethylcyclohexyl)pyridin-3-yl)-5-fluoro-6-(2-fluoro-4-hydroxyphenyl)picolinamide], for which the figures for the IC50 on Pim1 kinase [1] and at Pim3 kinase were 1 nM and 6 nM, respectively.

For the compound `C[C@H]1C[C@@H](c2ccncc2NC(=O)c2nc(C3CCCCC3)ccc2N)C[C@@H](N)[C@@H]1O` (stereo in doubt) [Example 90, 3-amino-N-(4-(3-amino-4-hydroxy-5-methylcyclohexyl)pyridin-3-yl)-6-cyclohexylpicolinamide], the values for the IC50 on Pim1 kinase [1] and on Pim3 kinase were 3 nM and 12 nM, respectively.

Consider `CC(=O)O[C@H]1CC[C@@H](c2ccncc2NC(=O)c2nc(-c3c(F)cccc3F)ccc2N)C[C@H]1N` (stereo in doubt) [Example 101, 2-amino-4-(3-(3-amino-6-(2,6-difluorophenyl)picolinamido)pyridin-4-yl)cyclohexyl acetate], for which the IC50 turned out to be 2 nM on Pim1 kinase [1] and 5 nM on Pim3 kinase.

In the case of `Nc1cc(F)c(-c2ccncc2F)nc1C(=O)Nc1cnccc1[C@@H]1CCC[C@H](N)C1` [Example 136, 5-amino-N-(4-((1R,3S)-3-aminocyclohexyl)pyridin-3-yl)-3,3′-difluoro-2,4′-bipyridine-6-carboxamide], the IC50 at Pim1 kinase [1] came out at 2 nM; on Pim3 kinase, 9 nM.

Consider `C[C@@H]1C[C@H](N)C[C@H](c2ccncc2NC(=O)c2ccc(F)c(-c3cc(F)ccc3F)n2)C1` [Example 61, N-(4-((1R,3S,5S)-3-amino-5-methylcyclohexyl)pyridin-3-yl)-6-(2,5-difluorophenyl)-5-fluoropicolinamide], for which the IC50 on Pim1 kinase [1] was 1 nM; at Pim3 kinase, 4 nM.

As for `N[C@H]1CCC[C@@H](c2ccncc2NC(=O)c2nc(-c3c(F)cccc3F)ccc2F)C1` [Example 80, N-(4-((1R,3S)-3-aminocyclohexyl)pyridin-3-yl)-6-(2,6-difluorophenyl)-3-fluoropicolinamide], the IC50 at Pim1 kinase [1] turned out to be 6 nM; on Pim3 kinase it was 7 nM.

As for `N[C@H]1CCC[C@@H](c2ccncc2NC(=O)c2ccc(F)c(-c3cc(F)cc(F)c3F)n2)C1` [Example 14, N-(4-((1R,3S)-3-aminocyclohexyl)pyridin-3-yl)-5-fluoro-6-(2,3,5-trifluorophenyl)picolinamide], the results for the IC50 on Pim1 kinase [1] and on Pim3 kinase were 6 nM and 12 nM, respectively.

As to `N[C@H]1CCC[C@@H](c2ccncc2NC(=O)c2ccc(F)c(-c3ccc(F)cc3F)n2)C1` [Example 82, N-(4-((1R,3S)-3-aminocyclohexyl)pyridin-3-yl)-6-(2,4-difluorophenyl)-5-fluoropicolinamide], the IC50 on Pim1 kinase [1] is 3 nM; at Pim3 kinase it was 9 nM.
